One assay concerns M.avium 20092. Nature of the assay: Antibacterial activity (MIC), atypical acid-fast bacteria. The assay is classed as cell-based. The note with it: Mycobacterium avium, 10^6/ml of colony forming bacteria. The procedure:
(§1) Antibacterial activities (minimum inhibitory concentration: MIC) were determined according to the standard method of the Japan Society of Chemotherapy [Chemotherapy, Vol. 29, p.76 (1981)] by using type strains and strains isolated from patients with infectious disease (including clinical isolates and atypical acid-fast bacteria), and applying 10^6/ml of colony forming bacteria. Linezolid was used as the reference compound [a compound described in Journal of Medicinal Chemistry, Vol. 39, p.673 (1996), hereinafter referred to as "reference compound"].

The test system of another assay is M.avium 20096. The description is as above. The assay is classed as cell-based. Particulars: Mycobacterium avium, 10^6/ml of colony forming bacteria. The protocol:
as §1

In another assay the test system is M.intracellulare 20067. Described as above. The assay is classed as cell-based. The note with it: Mycobacterium intracellulare, 10^6/ml of colony forming bacteria. The protocol:
as §1

For a further assay, the system named is M.intracellulare 20073. Described as above. The note with it: Mycobacterium intracellulare, 10^6/ml of colony forming bacteria. The assay is classed as cell-based. The procedure:
as §1

For another assay, the system named is MRSA HPC 432. In words: Antibacterial activity (MIC), clinical isolates. The assay is classed as cell-based, Methicillin-resistant Staphylococcus aureus. Particulars: Staphylococcus aureus. The procedure:
as §1

For the next assay, the system named is MRSA HPC 1336. Nature of the assay: Antibacterial activity (MIC), clinical isolates. The assay is classed as cell-based, Methicillin-resistant Staphylococcus aureus. The note with it: Staphylococcus aureus. The protocol: as §1
The subject of assay [1] is B.subtilis ATCC 6633 HPR022. Nature of the assay: Antibacterial activity (MIC), type strains. The assay is classed as cell-based. Particulars: Bacillus subtilis, ATCC6633; type strain B.subtilis ATCC 6633 HPR022; 10^6/ml of colony forming bacteria. The protocol: as §1
For the next assay, the system named is S.aureus MS353 HPC017. Nature of the assay: Antibacterial activity (MIC), type strains. The assay is classed as cell-based. Particulars: Staphylococcus aureus, MS353HPC017. The procedure: as §1
The next assay concerns S.aureus Smith HPC023. In words: Antibacterial activity (MIC), type strains. The note with it: Staphylococcus aureus. The assay is classed as cell-based. The procedure: as §1
Another assay has as its system E.faecium HPC 1322. Nature of the assay: Antibacterial activity (MIC), clinical isolates. Particulars: Enterococcus faecium, HPC1322. The assay is classed as cell-based. The protocol:
as §1

In a further assay the test system is E.faecalis HPC 1321. Nature of the assay: Antibacterial activity (MIC), clinical isolates. The assay is classed as cell-based. The note with it: Enterococcus faecalis, HPC1321. The protocol: as §1
In the next assay the test system is S.epidermidis HPC 1728. In words: Antibacterial activity (MIC), clinical isolates. The assay is classed as cell-based. Particulars: Staphylococcus epidermidis, HPC1728. The protocol: as §1
Where [2] appears, read: clinical isolate MRSA HPC 432, 10^6/ml of colony forming bacteria, read-out: MIC.
The mark [3] stands for this setting: clinical isolate MRSA HPC 1336, 10^6/ml of colony forming bacteria, read-out: MIC.
Where [4] appears, read: type strain S.aureus MS353 HPC017, 10^6/ml of colony forming bacteria, read-out: MIC.
[5] abbreviates: type strain S.aureus Smith HPC023, 10^6/ml of colony forming bacteria, read-out: MIC.
The mark [6] stands for this setting: clinical isolate E.faecium HPC 1322, 10^6/ml of colony forming bacteria, read-out: MIC.
Setting [7] is: clinical isolate E.faecalis HPC 1321, 10^6/ml of colony forming bacteria, read-out: MIC.
Setting [8] is: clinical isolate S.epidermidis HPC 1728, 10^6/ml of colony forming bacteria, read-out: MIC.

The structures appear in SMILES notation. In brackets after ≈: the same amount, converted by molar mass. Read-outs that look alike come from different tables or passages of the source.

A word on the MIC: it is the lowest concentration found to suppress growth. Turning to `COC(=S)NC[C@H]1CN(c2ccc(N3CCSCC3)c(F)c2)C(=O)O1` [Example 1, O-Methyl (S)-N-[3-[3-fluoro-4-(thiomorpholin-4-yl)phenyl]-2-oxooxazolidin-5-yl]methylthiocarbamate], the MIC came out at 0.39 µg/mL (≈ 1.01 µM) in the assay with M.avium 20092; 0.39 µg/mL (≈ 1.01 µM) with M.avium 20096; 0.39 µg/mL (≈ 1.01 µM) with M.intracellulare 20067; 0.39 µg/mL (≈ 1.01 µM) in the assay with M.intracellulare 20073; 0.78 µg/mL (≈ 2.02 µM) with MRSA HPC 432 (setting [2]); 0.78 µg/mL (≈ 2.02 µM) in the assay with MRSA HPC 1336 (setting [3]). In addition, the MIC in assay [1] is 0.39 µg/mL (≈ 1.01 µM); with S.aureus MS353 HPC017 (setting [4]), 0.78 µg/mL (≈ 2.02 µM); in the assay with S.aureus Smith HPC023 (setting [5]) it was 1.56 µg/mL (≈ 4.05 µM); in the assay with E.faecium HPC 1322 (setting [6]), 0.78 µg/mL (≈ 2.02 µM); in the assay on E.faecalis HPC 1321 (setting [7]), 0.78 µg/mL (≈ 2.02 µM); in the assay with S.epidermidis HPC 1728 (setting [8]) it was 0.78 µg/mL (≈ 2.02 µM).

`COC(=S)NC[C@H]1CN(c2ccc(N3CC[S+]([O-])CC3)c(F)c2)C(=O)O1` [Example 2]: the MIC against M.avium 20092 was found to be 3.13 µg/mL (≈ 7.8 µM); in the assay on M.avium 20096, 3.13 µg/mL (≈ 7.8 µM); with M.intracellulare 20067 it was 6.25 µg/mL (≈ 15.6 µM); against M.intracellulare 20073 it was 6.25 µg/mL (≈ 15.6 µM); in the assay with MRSA HPC 432 (setting [2]) it was 0.78 µg/mL (≈ 1.94 µM); in the assay with MRSA HPC 1336 (setting [3]) it was 0.78 µg/mL (≈ 1.94 µM). In addition, the MIC in [1] amounted to 0.39 µg/mL (≈ 0.971 µM); in the assay on S.aureus MS353 HPC017 (setting [4]), 0.78 µg/mL (≈ 1.94 µM); in the assay on S.aureus Smith HPC023 (setting [5]) it was 0.78 µg/mL (≈ 1.94 µM); in the assay with E.faecium HPC 1322 (setting [6]) it was 0.39 µg/mL (≈ 0.971 µM); in the assay on E.faecalis HPC 1321 (setting [7]), 0.39 µg/mL (≈ 0.971 µM); in the assay with S.epidermidis HPC 1728 (setting [8]) it was 0.78 µg/mL (≈ 1.94 µM).

`COC(=S)NC[C@H]1CN(c2ccc(N3CCS(=O)(=O)CC3)c(F)c2)C(=O)O1` [Example 3]: the MIC in the assay on M.avium 20092 was found to be 3.13 µg/mL (≈ 7.5 µM); with M.avium 20096 it was 3.13 µg/mL (≈ 7.5 µM); against M.intracellulare 20067, 3.13 µg/mL (≈ 7.5 µM); in the assay with M.intracellulare 20073 it was 3.13 µg/mL (≈ 7.5 µM); in the assay on MRSA HPC 432 (setting [2]), 0.78 µg/mL (≈ 1.87 µM); with MRSA HPC 1336 (setting [3]), 0.78 µg/mL (≈ 1.87 µM). The MIC came out at 0.39 µg/mL (≈ 0.934 µM) in assay [1]; 0.78 µg/mL (≈ 1.87 µM) in the assay on S.aureus MS353 HPC017 (setting [4]); 0.78 µg/mL (≈ 1.87 µM) with S.aureus Smith HPC023 (setting [5]); 0.39 µg/mL (≈ 0.934 µM) with E.faecium HPC 1322 (setting [6]); 0.39 µg/mL (≈ 0.934 µM) with E.faecalis HPC 1321 (setting [7]); 0.39 µg/mL (≈ 0.934 µM) in the assay on S.epidermidis HPC 1728 (setting [8]).

`COC(=S)NC[C@H]1CN(c2ccc(N3CCCC3)c(F)c2)C(=O)O1` [Example 4]: the minimal inhibitory concentration (MIC) against M.avium 20092 came to 1.56 µg/mL (≈ 4.41 µM); in the assay with M.avium 20096 it was 1.56 µg/mL (≈ 4.41 µM); with M.intracellulare 20067 it was 1.56 µg/mL (≈ 4.41 µM); in the assay on M.intracellulare 20073 it was 0.78 µg/mL (≈ 2.21 µM); in the assay on MRSA HPC 432 (setting [2]), 0.39 µg/mL (≈ 1.1 µM); in the assay with MRSA HPC 1336 (setting [3]), 0.39 µg/mL (≈ 1.1 µM). Moreover, the MIC (in assay [1]; in the assay on S.aureus MS353 HPC017 (setting [4]); in the assay on S.aureus Smith HPC023 (setting [5]); with E.faecium HPC 1322 (setting [6]); with E.faecalis HPC 1321 (setting [7]); in the assay on S.epidermidis HPC 1728 (setting [8])) was 0.39 µg/mL (≈ 1.1 µM) in each case.

Turning to `CC(=O)NC[C@H]1CN(c2ccc(N3CCOCC3)c(F)c2)C(=O)O1` [Reference compound, Linezolid, reference compound], the MIC was 25 µg/mL (≈ 74.1 µM) against M.avium 20092; 50 µg/mL (≈ 148 µM) with M.avium 20096; 12.5 µg/mL (≈ 37.1 µM) in the assay on M.intracellulare 20067; 6.25 µg/mL (≈ 18.5 µM) in the assay with M.intracellulare 20073; 3.13 µg/mL (≈ 9.28 µM) in the assay on MRSA HPC 432 (MRSA); 3.13 µg/mL (≈ 9.28 µM) in the assay with MRSA HPC 1336 (MRSA). Besides, the minimal inhibitory concentration (MIC) in [1] worked out at 0.78 µg/mL (≈ 2.31 µM); with S.aureus MS353 HPC017, 3.13 µg/mL (≈ 9.28 µM); against S.aureus Smith HPC023 it was 3.13 µg/mL (≈ 9.28 µM); in the assay on E.faecium HPC 1322, 1.56 µg/mL (≈ 4.62 µM); against E.faecalis HPC 1321 it was 1.56 µg/mL (≈ 4.62 µM); with S.epidermidis HPC 1728, 3.13 µg/mL (≈ 9.28 µM).

Values taken from patent EP1130016A1, “THIOCARBAMIC ACID DERIVATIVES” (HOKURIKU SEIYAKU CO., LTD., priority 1998, dated 2000).
